The values below come from patent US7572832B2, “Non-hygroscopic L-carnitine salts” (Biolink Life Sciences, Inc., priority 2007, dated 2009).

Entries after “also recorded” stand apart in the source; their conditions may differ. Where two headings read alike, the source gives them in different places.

On the set-up of data set [1]: species or system human. The note with it: in vivo, iv. The source says:
Physiological effects of administration by injection of a solution of L-carnitine calcium acetate. The inventors expect that a study paralleling that of Golper et al. (Example 9, vide infra) may be completed in which L-carnitine calcium acetate of the present invention is substituted for the L-carnitine of Golper et al. L-Carnitine calcium acetate of the present invention has a known molecular weight and composition and is water soluble. Therefore, intravenously administrable solutions of L-carnitine calcium acetate can be prepared that will provide a known concentration of L-carnitine. The intravenously administrable solutions of L-carnitine calcium acetate of the present invention may be provided to test subjects as sterile aqueous solutions of L-carnitine calcium acetate which will be administered by injecting over one to three minutes in the venous line during the blood return immediately after the end of every dialysis treatment. In the alternative, the inventors expect that the unique physico-chemical properties of L-carnitine calcium acetate of the present invention will permit incorporation of L-carnitine calcium acetate into dialysate as a source of L-carnitine and as a partial or total replacement for the calcium that is conventionally included in dialysate.

The nature of data set [2]: Determination of hygroscopicity or deliquescence (exposure study). The following applies: for change in mass, final vs initial net weight: + = increase, 1% or greater increase = hygroscopic, less than 1% change = stable and non-hygroscopic; for Net weight, final: open glass container, ambient atmosphere, end of 6-day storage period.
Method: The hygroscopicity or deliquescence of L-carnitine compounds was determined in the following manner. An accurately weighed portion of each compound was weighed into a separate, tared glass container that was open to the ambient atmosphere. Periodically during the storage period that followed, each sample was re-weighed and the mass recorded. At the end of the 6-day storage period, the change in mass at each interval was determined (Table 2).
Data set [3] is described as follows: Observation of hygroscopicity and storage stability of the isolated solid on exposure to the atmosphere. In kind it is physicochemical. Here is the method:
The term “non-hygroscopic” means the ability endowed by certain L-carnitine salts, when they occur as powders or granules, to withstand exposure to the water vapor of an ambient atmosphere for 24 hours or longer without giving rise to adverse phenomena of aggregating, agglomerating, absorbing water, or deliquescing which results in loss of their flowability.
Attempted preparation of L-carnitine calcium succinate. A mixture of calcium succinate ([…], 0.003 mol) and L-carnitine (0.5 g, 0.003 mol) was dissolved in water (5 mL) and stirred at room temperature for 30 minutes. Dissolution was incomplete, and the reaction temperature was raised to 80° C. Stirring was continued at the higher temperature for 3 hr. The resulting solution was cooled to room temperature and filtered, and the filtrate was concentrated at reduced pressure to a white solid.
Attempted preparation of L-carnitine calcium salt. A mixture of calcium hydroxide (0.22 g, 0.003 mol) was suspended in acetone (100 mL) and a concentrated solution of L-carnitine (0.5 g, 0.003 mol) in the minimum volume of water needed to effect dissolution was added. The resulting reaction mixture was heated at reflux for 4 hours. Dissolution remained incomplete. The reaction mixture was filtered hot. The filtrate was concentrated at reduced pressure to a white solid.

The conditions of data set [4]: 20 mg/kg intravenously (VitaCarn 20% solution) after every dialysis treatment, six months; cited from earlier work.
The conditions of data set [5]: background statement; cited from earlier work.
[6] abbreviates: 6-day storage open to ambient atmosphere.

Turning to `CC(=O)[O-].CC(=O)[O-].C[N+](C)(C)C[C@H](O)CC(=O)[O-].[Ca+2]` [L-carnitine calcium acetate], the “change in plasma and red blood cell carnitine concentrations and total/free carnitine ratio” value in data set [1] is recorded as “measurable increases”. Also, the “change in mass, final vs initial net weight” value (from here on “change in mass, final”) in data set [2] (setting [6]) is listed as “(+0.3%)”. Moreover, the “Conclusion & Observations” value in data set [2] (6-day storage open to ambient atmosphere, calcium acetate) is “did not absorb water and was stable during storage”; in data set [2] (6-day storage open to ambient atmosphere, listed as L-Carnitine calcium acetate, calcium acetate) it was “absorb water and was stable during storage”. Besides, the “Net weight, final” value in data set [2] stood at 149.5 mg.
Turning to `C[N+](C)(C)C[C@H](O)CC(=O)[O-].O=C([O-])/C=C/C(=O)[O-].[Ca+2]` [L-carnitine calcium fumarate], the “hygroscopicity and stability of the solid” value (from here on “hygroscopicity and stability”) in data set [3] was “hygroscopic”.
In the case of `CCC(=O)[O-].CCC(=O)[O-].C[N+](C)(C)C[C@H](O)CC(=O)[O-].[Ca+2]` [L-carnitine calcium propionate], in data set [2] (setting [6]), the “change in mass, final” value is recorded as “(+5%)”. Moreover, the “Conclusion & Observations” value in data set [2] (higher relative humidities (above about 20%)) was “absorbed water. Compound became”; in data set [2] (relative humidity less than about 20%), “mobility of the material did not change”. In data set [2], the “Net weight, final” value is 170.2 mg.
For the compound `C[N+](C)(C)C[C@H](O)CC(=O)[O-].[Ca]` [L-carnitine calcium salt], the “hygroscopicity and stability” value in data set [3] is “hygroscopic”.
The same measure, in the same setting: the same measure for `C[N+](C)(C)C[C@H](O)CC(=O)[O-].O=C([O-])CCC(=O)[O-].[Ca+2]` [L-carnitine calcium succinate]: “hygroscopic”.
As to `C[N+](C)(C)C[C@H](O)CC(=O)[O-]` [L-carnitine, L-(−)-Carnitine], the “increase of plasma and red blood cell total carnitine concentrations” value in data set [4] is “eightfold”. Moreover, the “hygroscopicity (known)” value in data set [5] was “very hygroscopic”. Also, in data set [2] (setting [6]), the “Conclusion & Observations” value is “absorbed water. Material is hygroscopic” and the “change in mass, final” value is given as “(+>8%)”. For the same compound, the “Net weight, final” value in data set [2] is reported as above 226.8 mg.
Turning to L-carnitine calcium butyrate, the “hygroscopicity and stability” value in data set [3] (exposure to the atmosphere) was “not hygroscopic; also recorded: lack of hygroscopicity or deliquescence”; in data set [3] (provided that the relative humidity is less than about 20%) it was “not hygroscopic or deliquescent and is stable during storage”.
